Data: patent US11242327B2, “Analgesic compounds” (RECURIUM IP HOLDINGS, LLC, priority 2017, dated 2022)

Legend:
male Sprague-Dawley rats [1] = assay: Formalin Paw Test, rat, oral; type: in vivo; details: 30 mg/kg
Outline: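 Paw licking recorded every 5 min for 35 min after formalin injection, in groups of 8 non-fasted males: Sprague-Dawley rats (200–225 g) dosed orally or ICR mice (23±3 g) dosed intraperitoneally. Scores are licking-time bins: A <70 s, B 70–165 s, C >165 s.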

male Sprague-Dawley rats [2] = assay: UVB Inflammatory Pain Test (thermal hyperalgesia); type: in vivo; details: rat, oral; for paw withdrawal latency, 1 h: 1 h after dosing; for paw withdrawal latency, 2 h: 2 h after dosing; for paw withdrawal latency, 4 h: 4 h after dosing
Outline: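 Left hind-paw plantar UVB (350 mJoules/cm^2) given on Day −3 to male Sprague-Dawley rats; on Day 0, test compounds dosed orally at 3, 10, 30 or 100 mg/kg, with water vehicle, celecoxib 30 mg/kg and acetaminophen 300 mg/kg. Radiant-heat paw withdrawal latency (mean of 3, 30 s cutoff) measured before dosing and about 1, 2 and 4 h after.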

male Sprague-Dawley rats [3] = assay: Osteoarthritis Pain Test (MIA, mechanical hyperalgesia); type: in vivo; details: rat; for joint compression threshold, Day 3, 1 h: Day 3, 1 h post-dosing; for joint compression threshold, Day 3, 2 h: Day 3, 2 h post-dosing; for joint compression threshold, Day 3, 4 h: Day 3, 4 h post-dosing; for joint compression threshold, Day 6, 1 h: Day 6, 1 h post-dosing; for joint compression threshold, Day 6, 2 h: Day 6, 2 h post-dosing; for joint compression threshold, Day 6, 4 h: Day 6, 4 h post-dosing; for joint compression threshold, Day 0, 1 h: Day 0, 1 h post-dosing; for joint compression threshold, Day 0, 2 h: Day 0, 2 h post-dosing; for joint compression threshold, Day 0, 4 h: Day 0, 4 h post-dosing
Experimental: Osteoarthritis pain was induced in non-fasted male Sprague-Dawley rats weighing 150-250 g by injecting 2 mg of monosodium iodoacetate (MIA) into the left knee joint. Mechanical hyperalgesia was measured using a digital Randall-Selitto device (dRS; IITC Life Sciences©; Woodland Hills, Calif.). Animals were allowed to acclimate to the testing room for a minimum of 15 minutes before testing. Animals were placed in a restraint sling that suspended the animal, leaving the hind limbs available for testing. The stimulus was applied to the knee joint by a blunt tip and pressure was applied gradually over approximately 10 seconds. Joint compression threshold values were recorded at the first observed nocifensive behavior (vocalization, struggle, or withdrawal). One reading per joint was taken at each time point, and a maximum stimulus cutoff of 500 grams was used to prevent injury to the animal. Mechanical hyperalgesia was assessed prior to MIA injection, and again 14 days later. After 14 days, test or control articles were administered once daily for 7 days with mechanical hyperalgesia assessed prior to dosing, 1, 2, and 4 hours post-dosing on days 0, 3, and 6. Test compounds were administered orally at concentrations of 3, 10, 30 or 100 mg/kg and celecoxib was administered orally at a concentration of 30 mg/kg. The control group received the vehicle (sterile water). After day 0, groups receiving the 100 mg/kg dose were reduced to a dose of 3 mg/kg. In Table 5, ‘A’ designates ≥375 grams of joint compression, ‘B’ designates ≥325 and <375 grams of joint compression, and ‘C’ designates <325 grams of joint compression.
The results provided in Table 5 are for oral administration in rats.

COX-1 = COX-1 (Homo sapiens, UniProt P23219); assay: NSAIDS and Opioid Receptor Test: COX-1; type: biochemical; details: 200 μM
Chain of COX-1 (P23219 24-599): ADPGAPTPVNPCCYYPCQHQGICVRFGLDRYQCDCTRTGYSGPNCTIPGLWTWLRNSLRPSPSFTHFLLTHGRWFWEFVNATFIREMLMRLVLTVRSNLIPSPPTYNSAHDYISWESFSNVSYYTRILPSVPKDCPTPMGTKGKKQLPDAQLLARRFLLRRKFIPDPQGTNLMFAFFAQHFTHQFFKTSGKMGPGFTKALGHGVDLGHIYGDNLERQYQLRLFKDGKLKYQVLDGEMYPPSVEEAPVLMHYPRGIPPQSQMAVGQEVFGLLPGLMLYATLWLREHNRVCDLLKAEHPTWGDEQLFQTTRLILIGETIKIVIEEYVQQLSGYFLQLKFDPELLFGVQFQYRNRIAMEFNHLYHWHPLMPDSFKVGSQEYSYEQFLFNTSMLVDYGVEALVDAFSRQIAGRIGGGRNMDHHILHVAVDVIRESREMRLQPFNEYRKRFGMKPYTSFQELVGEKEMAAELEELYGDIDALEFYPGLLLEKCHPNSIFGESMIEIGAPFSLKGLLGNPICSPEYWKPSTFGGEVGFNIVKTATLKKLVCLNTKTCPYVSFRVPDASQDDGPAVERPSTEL
Experimental: Compounds were screened as DMSO solutions at 10 μM, 100 μM, or 200 μM and values represent percent inhibition of control-specific binding. […] As NSAID and opioid mechanisms of action are precluded, a person of ordinary skill in the art understands that undesirable side effects associated with inhibition of COX receptors in NSAIDs and activation of opiate receptors in opioids can be avoided by compounds described herein. Furthermore, opioids are known to lose their analgesic potency after to continued administration. (See Benyamin, et al. “Opioid Complications and Side Effects” Pain Physician 11 (2008): S105-S120). As the data indicates compounds described herein have a different mechanism action compared to opioids, a person of ordinary skill in the art would appreciate that compounds described herein would not be expected to lose their analgesic potency like opioids after continued admininistration.

[4] = oral once daily, 3 mg/kg (group had 100 mg/kg on day 0)

With `Cc1sc(C23CC(N)(C2)C3)nc1C(F)(F)F.Cl` [Compound 2, 3-(5-Methyl-4-(trifluoromethyl)thiazol-2-yl)bicyclo[1.1.1]pentan-1-amine hydrochloride] the “Early Phase, seconds of paw licking” value (male Sprague-Dawley rats [1]; early/acute phase (0-10 minutes)) was “A (<70 seconds of paw licking)”, the “Late Phase, seconds of paw licking” value (male Sprague-Dawley rats [1]; late/tonic phase (10-35 minutes)) was “A (<70 seconds of paw licking)” and the “paw withdrawal latency, 1 h” value (male Sprague-Dawley rats [2]; 3 mg/kg) was “A (>8 seconds of paw withdrawal latency)”. The “paw withdrawal latency, 2 h” value (male Sprague-Dawley rats [2]; 3 mg/kg) was “A (>8 seconds of paw withdrawal latency)”, the “paw withdrawal latency, 4 h” value (male Sprague-Dawley rats [2]; 3 mg/kg) was “A (>8 seconds of paw withdrawal latency)” and the “paw withdrawal latency, 1 h” value (male Sprague-Dawley rats [2]; 10 mg/kg) was “A (>8 seconds of paw withdrawal latency)”. For the same molecule, the “paw withdrawal latency, 2 h” value (male Sprague-Dawley rats [2]; 10 mg/kg) was “B (>6 and <8 seconds of paw withdrawal latency)”, the “paw withdrawal latency, 4 h” value (male Sprague-Dawley rats [2]; 10 mg/kg) was “A (>8 seconds of paw withdrawal latency)” and the “paw withdrawal latency, 1 h” value (male Sprague-Dawley rats [2]; 30 mg/kg) was “A (>8 seconds of paw withdrawal latency)”. For the same molecule, the “paw withdrawal latency, 2 h” value (male Sprague-Dawley rats [2]; 30 mg/kg) was “A (>8 seconds of paw withdrawal latency)”, the “paw withdrawal latency, 4 h” value (male Sprague-Dawley rats [2]; 30 mg/kg) was “B (>6 and <8 seconds of paw withdrawal latency)” and the “paw withdrawal latency, 1 h” value (male Sprague-Dawley rats [2]; 100 mg/kg) was “A (>8 seconds of paw withdrawal latency)”. For the same molecule, the “paw withdrawal latency, 2 h” value (male Sprague-Dawley rats [2]; 100 mg/kg) was “A (>8 seconds of paw withdrawal latency)”, the “paw withdrawal latency, 4 h” value (male Sprague-Dawley rats [2]; 100 mg/kg) was “A (>8 seconds of paw withdrawal latency)” and the “joint compression threshold, Day 3, 1 h” value (male Sprague-Dawley rats [3]; [4]) was “A (≥375 grams of joint compression)”. The “joint compression threshold, Day 3, 2 h” value (male Sprague-Dawley rats [3]; [4]) was “A (≥375 grams of joint compression)”, the “joint compression threshold, Day 3, 4 h” value (male Sprague-Dawley rats [3]; [4]) was “A (≥375 grams of joint compression)” and the “joint compression threshold, Day 6, 1 h” value (male Sprague-Dawley rats [3]; [4]) was “B (≥325 and <375 grams of joint compression)”. For the same molecule, the “joint compression threshold, Day 6, 2 h” value (male Sprague-Dawley rats [3]; [4]) was “B (≥325 and <375 grams of joint compression)”, the “joint compression threshold, Day 6, 4 h” value (male Sprague-Dawley rats [3]; [4]) was “B (≥325 and <375 grams of joint compression)” and the “joint compression threshold, Day 0, 1 h” value (male Sprague-Dawley rats [3]; oral once daily, 10 mg/kg) was “C (<325 grams of joint compression)”. For the same molecule, the “joint compression threshold, Day 0, 2 h” value (male Sprague-Dawley rats [3]; oral once daily, 10 mg/kg) was “C (<325 grams of joint compression)”, the “joint compression threshold, Day 0, 4 h” value (male Sprague-Dawley rats [3]; oral once daily, 10 mg/kg) was “C (<325 grams of joint compression)” and the “joint compression threshold, Day 3, 1 h” value (male Sprague-Dawley rats [3]; oral once daily, 10 mg/kg) was “B (≥325 and <375 grams of joint compression)”. The “joint compression threshold, Day 3, 2 h” value (male Sprague-Dawley rats [3]; oral once daily, 10 mg/kg) was “A (≥375 grams of joint compression)”, the “joint compression threshold, Day 3, 4 h” value (male Sprague-Dawley rats [3]; oral once daily, 10 mg/kg) was “C (<325 grams of joint compression)” and the “joint compression threshold, Day 6, 1 h” value (male Sprague-Dawley rats [3]; oral once daily, 10 mg/kg) was “B (≥325 and <375 grams of joint compression)”. For the same molecule, the “joint compression threshold, Day 6, 2 h” value (male Sprague-Dawley rats [3]; oral once daily, 10 mg/kg) was “B (≥325 and <375 grams of joint compression)”, the “joint compression threshold, Day 6, 4 h” value (male Sprague-Dawley rats [3]; oral once daily, 10 mg/kg) was “A (≥375 grams of joint compression)” and the “joint compression threshold, Day 0, 1 h” value (male Sprague-Dawley rats [3]; oral once daily, 30 mg/kg) was “B (≥325 and <375 grams of joint compression)”. The “joint compression threshold, Day 0, 2 h” value (male Sprague-Dawley rats [3]; oral once daily, 30 mg/kg) was “B (≥325 and <375 grams of joint compression)”, the “joint compression threshold, Day 0, 4 h” value (male Sprague-Dawley rats [3]; oral once daily, 30 mg/kg) was “B (≥325 and <375 grams of joint compression)” and the “joint compression threshold, Day 3, 1 h” value (male Sprague-Dawley rats [3]; oral once daily, 30 mg/kg) was “B (≥325 and <375 grams of joint compression)”. The “joint compression threshold, Day 3, 2 h” value (male Sprague-Dawley rats [3]; oral once daily, 30 mg/kg) was “B (≥325 and <375 grams of joint compression)”, the “joint compression threshold, Day 3, 4 h” value (male Sprague-Dawley rats [3]; oral once daily, 30 mg/kg) was “B (≥325 and <375 grams of joint compression)” and the “joint compression threshold, Day 6, 1 h” value (male Sprague-Dawley rats [3]; oral once daily, 30 mg/kg) was “B (≥325 and <375 grams of joint compression)”. For the same molecule, the “joint compression threshold, Day 6, 2 h” value (male Sprague-Dawley rats [3]; oral once daily, 30 mg/kg) was “B (≥325 and <375 grams of joint compression)”, the “joint compression threshold, Day 6, 4 h” value (male Sprague-Dawley rats [3]; oral once daily, 30 mg/kg) was “A (≥375 grams of joint compression)” and the “joint compression threshold, Day 0, 1 h” value (male Sprague-Dawley rats [3]; oral, 100 mg/kg) was “A (≥375 grams of joint compression)”. The “joint compression threshold, Day 0, 2 h” value (male Sprague-Dawley rats [3]; oral, 100 mg/kg) was “A (≥375 grams of joint compression)”, the “joint compression threshold, Day 0, 4 h” value (male Sprague-Dawley rats [3]; oral, 100 mg/kg) was “A (≥375 grams of joint compression)” and the inhibition at 200 µM (COX-1) was 15%.
